According to patent US10597388B2, “Pyridazinone herbicides” (FMC CORPORATION, priority 2014, dated 2020):

Tests used:
Test in all cases: Test D controlled growth environment herbicide test, pre- and postemergence
Format in all cases: in vivo
[1] = tested on: field violet (Viola arvensis)
Summary of the method: (§1)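 Species sown in silt loam and sprayed preemergence, or grown in peat-based medium to 2–18 cm (1- to 4-leaf stage) and sprayed postemergence, with compounds in non-phytotoxic solvent plus surfactant. Visual injury scored versus controls after 14–21 d in a controlled environment, 0 (no effect) to 100 (complete control).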

[2] = tested on: windgrass (Apera spica-venti)
Summary of the method: as §1

[3] = tested on: oilseed rape (Brassica napus)
Summary of the method: as §1

[4] = tested on: mustard, wild (wild mustard, Sinapis arvensis)
Summary of the method: as §1

[5] = tested on: pigweed (Amaranthus retroflexus)
Summary of the method: as §1

[6] = tested on: buckwheat, wild (wild buckwheat, Polygonum convolvulus)
Summary of the method: as §1

[7] = tested on: radish, wild (wild radish, Raphanus raphanistrum)
Summary of the method: as §1

[8] = tested on: bluegrass (annual bluegrass, Poa annua)
Summary of the method: as §1

[9] = tested on: canarygrass (Phalaris minor)
Summary of the method: as §1

[10] = tested on: speedwell (bird's-eye speedwell, Veronica persica)
Summary of the method: as §1

kochia (Kochia scoparia) = tested on: kochia (Kochia scoparia)
Summary of the method: as §1

[11] = tested on: galium (catchweed bedstraw, Galium aparine)
Summary of the method: as §1

[12] = Postemergence, 31 g ai/ha, scale 0 to 100 (0 no effect, 100 complete control)
[13] = Postemergence, 125 g ai/ha, visual rating on scale 0 (no effect) to 100 (complete control), 14 to 21 d
[14] = Postemergence, 250 g ai/ha, scale 0 to 100 (0 no effect, 100 complete control)
[15] = Preemergence, 62 g ai/ha, scale 0 to 100 (0 no effect, 100 complete control)
[16] = Preemergence, 125 g ai/ha, scale 0 to 100 (0 no effect, 100 complete control)
[17] = Preemergence, 250 g ai/ha, scale 0 to 100 (0 no effect, 100 complete control)
[18] = postemergence, 62 g ai/ha, scale 0 to 100, 0 no effect, 100 complete control

SMILES: Cc1ccc2sc(C)c(-c3c(O)c(C)nn(C)c3=O)c2c1 [Compound 1, 4-(2,5-dimethylbenzo[b]thien-3-yl)-5-hydroxy-2,6-dimethyl-3(2H)-pyridazinone]
- Field Violet plant response rating [1, 12]: 85
- Plant response rating, Field Violet [1, 13]: 90
- Plant response rating, Field Violet [1, 14]: 95
- Plant response rating (scale of 0 to 100), Field Violet ([1]; Preemergence, 31 g ai/ha): 95
- Plant response rating, Field Violet [1, 15]: 100
- Plant response rating, Field Violet [1, 16]: 100
- Plant response rating, Field Violet [1, 17]: 100
- Plant response rating, Field Violet [1, 18]: 75
- Windgrass plant response rating [2, 12]: 10
- Plant response rating, Windgrass [2, 13]: 50
- Plant response rating, Windgrass [2, 14]: 70
- Plant response rating (scale of 0 to 100), Windgrass ([2]; Preemergence, 31 g ai/ha): 15
- Plant response rating, Windgrass [2, 15]: 60
- Plant response rating, Windgrass [2, 16]: 85
- Plant response rating, Windgrass [2, 17]: 100
- Plant response rating, Windgrass [2, 18]: 25
- Oilseed Rape plant response rating [3, 12]: 0
- Plant response rating, Oilseed Rape [3, 13]: 35
- Plant response rating, Oilseed Rape [3, 14]: 60
- Plant response rating (scale of 0 to 100), Oilseed Rape ([3]; Preemergence, 31 g ai/ha): 0
- Plant response rating, Oilseed Rape [3, 15]: 0
- Plant response rating, Oilseed Rape [3, 16]: 5
- Plant response rating, Oilseed Rape [3, 17]: 20
- Plant response rating, Oilseed Rape [3, 18]: 15
- Mustard, Wild plant response rating [4, 12]: 25
- Plant response rating, Mustard, Wild [4, 13]: 40
- Plant response rating, Mustard, Wild [4, 14]: 65
- Plant response rating (scale of 0 to 100), Mustard, Wild ([4]; Preemergence, 31 g ai/ha): 0
- Plant response rating, Mustard, Wild [4, 15]: 0
- Plant response rating, Mustard, Wild [4, 16]: 10
- Plant response rating, Mustard, Wild [4, 17]: 25
- Plant response rating, Mustard, Wild [4, 18]: 30
- Pigweed plant response rating [5, 12]: 80
- Plant response rating, Pigweed [5, 13]: 100
- Plant response rating, Pigweed [5, 14]: 100
- Plant response rating (scale of 0 to 100), Pigweed ([5]; Preemergence, 31 g ai/ha): 70
- Plant response rating, Pigweed [5, 15]: 100
- Plant response rating, Pigweed [5, 16]: 100
- Plant response rating, Pigweed [5, 17]: 100
- Plant response rating, Pigweed [5, 18]: 90
- Buckwheat, Wild plant response rating [6, 12]: 70
- Plant response rating, Buckwheat, Wild [6, 13]: 100
- Plant response rating, Buckwheat, Wild [6, 14]: 100
- Plant response rating (scale of 0 to 100), Buckwheat, Wild ([6]; Preemergence, 31 g ai/ha): 5
- Plant response rating, Buckwheat, Wild [6, 15]: 10
- Plant response rating, Buckwheat, Wild [6, 16]: 65
- Plant response rating, Buckwheat, Wild [6, 17]: 100
- Plant response rating, Buckwheat, Wild [6, 18]: 75
- Radish, Wild plant response rating [7, 12]: 10
- Plant response rating, Radish, Wild [7, 13]: 30
- Plant response rating, Radish, Wild [7, 14]: 60
- Plant response rating (scale of 0 to 100), Radish, Wild ([7]; Preemergence, 31 g ai/ha): 0
- Plant response rating, Radish, Wild [7, 15]: 0
- Plant response rating, Radish, Wild [7, 16]: 15
- Plant response rating, Radish, Wild [7, 17]: 100
- Plant response rating, Radish, Wild [7, 18]: 20
- Bluegrass plant response rating [8, 12]: 0
- Plant response rating, Bluegrass [8, 13]: 5
- Plant response rating, Bluegrass [8, 14]: 5
- Plant response rating (scale of 0 to 100), Bluegrass ([8]; Preemergence, 31 g ai/ha): 5
- Plant response rating, Bluegrass [8, 15]: 15
- Plant response rating, Bluegrass [8, 16]: 35
- Bluegrass plant response rating [8, 17]: 50
- Plant response rating, Bluegrass [8, 18]: 5
- Canarygrass plant response rating [9, 12]: 20
- Plant response rating, Canarygrass [9, 13]: 50
- Plant response rating, Canarygrass [9, 14]: 70
- Plant response rating (scale of 0 to 100), Canarygrass ([9]; Preemergence, 31 g ai/ha): 40
- Plant response rating, Canarygrass [9, 15]: 60
- Plant response rating, Canarygrass [9, 16]: 85
- Plant response rating, Canarygrass [9, 17]: 90
- Plant response rating, Canarygrass [9, 18]: 35
- Speedwell plant response rating [10, 12]: 25
- Plant response rating, Speedwell [10, 13]: 60
- Plant response rating, Speedwell [10, 14]: 70
- Plant response rating (scale of 0 to 100), Speedwell ([10]; Preemergence, 31 g ai/ha): 70
- Plant response rating, Speedwell [10, 15]: 50
- Plant response rating, Speedwell [10, 17]: 95
- Plant response rating, Speedwell [10, 18]: 55
- Kochia plant response rating (kochia (Kochia scoparia); [12]): 70
- Plant response rating, Kochia (kochia (Kochia scoparia); [13]): 95
- Plant response rating, Kochia (kochia (Kochia scoparia); [14]): 100
- Plant response rating (scale of 0 to 100), Kochia (kochia (Kochia scoparia); Preemergence, 31 g ai/ha): 0
- Plant response rating, Kochia (kochia (Kochia scoparia); [15]): 0
- Plant response rating, Kochia (kochia (Kochia scoparia); [16]): 35
- Plant response rating, Kochia (kochia (Kochia scoparia); [17]): 75
- Plant response rating, Kochia (kochia (Kochia scoparia); [18]): 85
- Galium plant response rating [11, 12]: 80
- Plant response rating, Galium [11, 13]: 95
- Plant response rating, Galium [11, 14]: 100
- Plant response rating (scale of 0 to 100), Galium ([11]; Preemergence, 31 g ai/ha): 75
- Plant response rating, Galium [11, 15]: 95
- Plant response rating, Galium [11, 16]: 100
- Plant response rating, Galium [11, 17]: 100
- Plant response rating, Galium [11, 18]: 90
